{"source": "patent US9732088B2", "about": "“C2-carbocyclic iminothiazine dioxides as BACE inhibitors, compositions, and their use” (Merck Sharp & Dohme Corp., priority 2014, dated 2017)", "key": {"[1]": {"target": "soluble human BACE-1 catalytic domain (Homo sapiens (Human), UniProt P56817)", "sequence (P56817 75-416)": "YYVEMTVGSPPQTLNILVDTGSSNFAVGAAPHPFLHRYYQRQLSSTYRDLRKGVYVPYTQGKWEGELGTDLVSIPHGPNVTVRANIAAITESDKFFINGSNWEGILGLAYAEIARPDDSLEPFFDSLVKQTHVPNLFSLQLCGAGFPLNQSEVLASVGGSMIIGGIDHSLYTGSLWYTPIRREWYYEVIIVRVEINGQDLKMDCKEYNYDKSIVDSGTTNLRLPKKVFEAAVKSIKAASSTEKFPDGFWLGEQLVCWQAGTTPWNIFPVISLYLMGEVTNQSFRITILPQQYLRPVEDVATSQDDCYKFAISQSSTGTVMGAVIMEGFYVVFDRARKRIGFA", "test": "BACE-1 Ki Assay (BACE-1 HTRF FRET Assay)", "format": "biochemical", "settings": "Assay 1; Ki calculated from IC50 by Cheng-Prusoff", "procedure": "Assay 1: BACE-1 Ki Assay (BACE-1 HTRF FRET Assay)\nThe compounds of the invention were determined to be potent inhibitors of BACE-1 using the following assay.\nThe following reagents were used in this assay. Na^+-Acetate pH 5.0; 1% Brij-35; Glycerol; Dimethyl Sulfoxide (DMSO); Recombinant human soluble BACE-1 catalytic domain (>95% pure); APP Swedish mutant peptide substrate (QSY7-APP^swe-Eu): QSY7-[…]-Europium-amide.\nA homogeneous time-resolved FRET assay can be used to determine IC50 values for inhibitors of the soluble human BACE-1 catalytic domain. This assay monitors the increase of 620 nm fluorescence that resulted from BACE-1 cleavage of an APPswedish APP^swe mutant peptide FRET substrate (QSY7-[…]-Europium-amide). This substrate contains an N-terminal QSY7 moiety that serves as a quencher of the C-terminal Europium fluorophore (620 nm Em). In the absence of enzyme activity, 620 nm fluorescence is low in the assay and increased linearly over 3 hours in the presence of uninhibited BACE-1 enzyme. Inhibition of BACE-1 cleavage of the QSY7-APP^swe-Eu substrate by inhibitors is manifested as a suppression of 620 nm fluorescence.\nVarying concentrations of inhibitors at 3× the final desired concentration in a volume of […] are preincubated with purified human BACE-1 catalytic domain (3 nM in 10 μl) for 30 minutes at 30° C. in reaction buffer containing 20 mM Na-Acetate pH 5.0, 10% glycerol, 0.1% Brij-35 and 7.5% DSMO. Reactions are initiated by addition of 10 μl of 600 nM QSY7-APP^swe-Eu substrate (200 nM final) to give a final reaction volume of 30 μl in a 384 well Nunc HTRF plate. The reactions are incubated at 30° C. for 1.5 hours. The 620 nm fluorescence is then read on a Rubystar HTRF plate reader (BMG Labtechnologies) using a […] delay followed by a 400 millisecond acquisition time window. Inhibitor IC50 values are derived from non-linear regression analysis of concentration response curves. Ki values are then calculated from IC50 values using the Cheng-Prusoff equation using a previously determined […] of 8 μM for the QSY7-APP^swe-Eu substrate at BACE-1. The example compounds of the invention were measured in this assay."}, "[2]": {"target": "purified human autoBACE-2 (Homo sapiens (Human), UniProt Q9Y5Z0)", "sequence (Q9Y5Z0 63-466)": "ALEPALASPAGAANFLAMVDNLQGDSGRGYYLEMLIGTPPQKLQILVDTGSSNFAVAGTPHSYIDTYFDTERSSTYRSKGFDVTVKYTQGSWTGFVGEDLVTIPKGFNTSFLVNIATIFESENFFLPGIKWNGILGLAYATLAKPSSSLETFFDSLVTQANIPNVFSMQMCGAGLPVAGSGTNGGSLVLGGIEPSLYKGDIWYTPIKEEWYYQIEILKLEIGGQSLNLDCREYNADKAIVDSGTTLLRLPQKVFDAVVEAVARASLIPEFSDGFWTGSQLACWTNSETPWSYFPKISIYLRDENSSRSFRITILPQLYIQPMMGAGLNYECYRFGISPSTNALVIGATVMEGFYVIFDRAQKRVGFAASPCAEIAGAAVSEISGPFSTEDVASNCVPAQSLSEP", "test": "BACE-2 Assay (BACE-HTRF assay)", "format": "biochemical", "settings": "Assay 2; Ki calculated from IC50 by Cheng-Prusoff; read-out: BACE2 Ki", "procedure": "The compounds of the invention were determined to be potent inhibitors of BACE-2 using the following assay. Inhibitor IC50s at purified human autoBACE-2 are determined in a time-resolved endpoint proteolysis assay that measures hydrolysis of the QSY7-[…]-Eu-amide FRET peptide substrate (BACE-HTRF assay). BACE-mediated hydrolysis of this peptide results in an increase in relative fluorescence (RFU) at 620 nm after excitation with 320 nm light Inhibitor compounds, prepared at 3× the desired final concentration in 1×BACE assay buffer (20 mM sodium acetate pH 5.0, 10% glycerol, 0.1% Brij-35) supplemented with 7.5% DMSO are pre-incubated with an equal volume of autoBACE-2 enzyme diluted in 1×BACE assay buffer (final enzyme concentration 1 nM) in black 384-well NUNC plates for 30 minutes at 30° C. […] DMSO is present at […] final concentration in the assay. Following laser excitation of sample wells at 320 nm, the fluorescence signal at 620 nm is collected for 400 ms following a 50 μs delay on a RUBYstar HTRF plate reader (BMG Labtechnologies). Raw RFU data is normalized to maximum (1.0 nM BACE/DMSO) and minimum (no enzyme/DMSO) RFU values. IC50 values are determined by nonlinear regression analysis (sigmoidal dose response, variable slope) of percent inhibition data with minimum and maximum values set to 0 and 100 percent respectively. Similar IC50s are obtained when using raw RFU data. The Ki values are calculated from the IC50 using the Cheng-Prusoff equation."}, "BACE-1": {"target": "BACE-1 (Homo sapiens (Human), UniProt P56817)", "sequence (P56817 46-501)": "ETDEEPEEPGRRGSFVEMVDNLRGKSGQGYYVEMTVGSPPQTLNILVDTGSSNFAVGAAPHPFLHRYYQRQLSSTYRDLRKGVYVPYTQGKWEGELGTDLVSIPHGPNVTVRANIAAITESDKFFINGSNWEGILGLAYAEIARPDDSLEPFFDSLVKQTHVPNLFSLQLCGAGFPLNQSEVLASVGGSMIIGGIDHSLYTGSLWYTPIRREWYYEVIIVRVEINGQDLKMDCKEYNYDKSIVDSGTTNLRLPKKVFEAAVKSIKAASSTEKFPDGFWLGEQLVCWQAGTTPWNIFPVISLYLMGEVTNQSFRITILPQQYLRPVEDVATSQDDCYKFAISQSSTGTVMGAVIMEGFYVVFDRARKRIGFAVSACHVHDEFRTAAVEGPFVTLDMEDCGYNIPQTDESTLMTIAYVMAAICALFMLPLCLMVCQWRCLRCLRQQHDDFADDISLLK", "test": "BACE-1 Cellular Assay (Aβ in HEK293-APPswe/lon cells)", "format": "cell-based", "settings": "4 hours", "procedure,_shortened": "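HEK293 cells stably expressing human APP with Swedish and London FAD mutations, cultured at 37° C., 5% CO2. Aβ40 or Aβ42 in conditioned media measured by electrochemiluminescent ELISA (WO2 capture; G2-10 or G2-11 detection). IC50 from variable-slope sigmoidal fit of signal versus compound concentration.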"}, "[3]": {"target": "purified human Cathepsin-D (Homo sapiens (Human), UniProt P07339)", "sequence (P07339 65-412)": "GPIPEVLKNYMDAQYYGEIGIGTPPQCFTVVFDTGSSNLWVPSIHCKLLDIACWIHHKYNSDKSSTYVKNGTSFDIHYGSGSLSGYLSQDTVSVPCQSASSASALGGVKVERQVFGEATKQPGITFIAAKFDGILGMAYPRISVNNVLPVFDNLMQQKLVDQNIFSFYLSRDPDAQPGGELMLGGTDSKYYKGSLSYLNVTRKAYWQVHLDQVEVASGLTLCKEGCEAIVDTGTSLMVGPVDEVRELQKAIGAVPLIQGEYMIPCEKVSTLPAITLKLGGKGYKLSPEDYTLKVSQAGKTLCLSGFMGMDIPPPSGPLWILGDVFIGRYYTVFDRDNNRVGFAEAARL", "test": "Cathepsin-D Assay (time-resolved FRET)", "format": "biochemical", "settings": "Assay 4; Ki calculated from IC50 by Cheng-Prusoff", "protocol": "Assay 4: Cathepsin-D Assay\nThis substrate contains an C-terminal QSY7 moiety that serves as a quencher of the N-terminal Europium fluorophore (620 nm Em). In the absence of enzyme activity, 620 nm fluorescence is low in the assay and increased linearly over 1 hour in the presence of uninhibited Cathepsin-D enzyme. Inhibition of Cathespin D cleavage of the Eu-Aspartyl Protease-QSY7 substrate by inhibitors is manifested as a suppression of 620 nm fluorescence.\nVarying concentrations of inhibitors in a volume of 100 nl are preincubated with purified human Cathepsin-D (0.1 nM in 10 μl) for 30 minutes at 30° C. in reaction buffer containing 100 mM Na-Acetate pH 5.0, and 0.02% Brij-35. Reactions are initiated by addition of 10 μl of 100 nM Eu-Aspartyl Protease-QSY7 substrate (50 nM final) to give a final reaction volume of 20 μl in a 384 well Nunc HTRF plate. The reactions are incubated at 30° C. for 30 minutes. The 620 nm fluorescence is then read on a Envision Multilabel plate reader (Perkin-Elmer) using a 200 microsecond delay followed by a 400 microsecond acquisition time window. Inhibitor IC50 values are derived from non-linear regression analysis of concentration response curves."}, "HepG2 cells": {"tested_on": "HepG2 cells", "test": "In Vitro Phospholipidosis Assay", "format": "cell-based", "settings": "20 μM, 24 hours, normalized to DMSO", "description": "[formula] Assay 7: In Vitro Phospholipidosis Assay\nDrug-induced phospholipidosis (PL) is characterized by intracellular accumulation of phospholipids with lamellular bodies, and may result from impaired phospholipid metabolism in the lysosome (Anderson et al., 2006, FEBS Letter, 580, 5533-5540), and many compounds known to cause drug-induced PL are also associated with adverse drug reactions. Using a method described in the literature (Bhandari et al., 2008, Assay and Drug Dev. Tech., 6(3), 407-419), an in vitro cellular assay can provide data that can determine the PL potential of test compounds. In this assay, compounds that lower values for mean inclusion count of a fluorescent phospholipid (described below) versus control are associated with reduced potential for PL.\nHepG2 cells were dispensed into 96-well collagen I coated plates at an initial density of 2.0×10^5 cells in 200 μL complete culturing medium (MEM Media w/Earle's Balanced Salt Solution supplemented with 10 IU penicillin, 10 μg/mL streptomycin, and 10% heat inactivated fetal bovine serum). Cells were incubated overnight at 37° C. with 5% CO2, 89% humidity prior to treatment.\nA solution of fluorescently labeled phospholipid N-(7-nitrobenz-2-oxa-1,3-diazol-4-yl)-1,2-dihexadecanoyl-sn-glycero-3-phosphoethanolamine (NBD-PE) was prepared at a concentration of 10 mM in absolute ethanol. Dissolution of the NBD-PE was facilitated by sonication in a room temperature water bath for 30 minutes. NBD-PE medium was prepared by diluting NBD-PE stock to a final concentration of 50 μM in complete culturing medium, filtering (pore size, 0.22 μm) prior to use.\nCompound treatment stocks were prepared in dimethyl sulfoxide at 500× final concentrations. Working treatment solutions were prepared by diluting compound stocks into NBD-PE medium with DMSO serving as the vehicle control. Treatment concentration was 20 μM. Amiodarone ((2-{4-[(2-butyl-1-benzofuran-3-yl)carbonyl]-2,6-diiodophenoxy}ethyl)diethylamine) served as the assay positive control at the same concentration. All treatments were tested in triplicate for 24 hours.\nFollowing treatment, cultures were rinsed once with Hank's Balanced Salt Solution (HBSS) containing no phenol red. Cultures were then incubated for 30 minutes at 37° C. with […] Hoechst 33342 nuclear stain and […] cell tracker orange cytoplasm stain. After incubation, cells were rinsed once with HBSS and then fixed in 2% formalin solution.\nCultures were imaged using the IN Cell Analyzer 2000 imaging system. One set of images were acquired with the 4× objective using the appropriate Hoechst filter settings to acquire a full-well cell count. Another set of images were acquired to evaluate treatment-related phospholipidosis with the 20× objective.\nImages were analyzed using custom algorithms created in the IN Cell Workstation software using NBD-PE inclusion count in the cell cytoplasm as and endpoint associated with phospholipidosis. Data were expressed as fold over control, normalized to the DMSO vehicle control response."}}}
{"compound": "COc1cnc2c(Nc3ccc(F)c([C@]4(C)CS(=O)(=O)[C@@](CF)(C5CC5)C(N)=N4)c3)nccc2c1", "note": "[Example 7, N-{3-[(3R,6S)-6-cyclopropyl-6-(fluoromethyl)-5-imino-3-methyl-1,1-dioxidothiomorpholin-3-yl]-4-fluorophenyl}-3-methoxy-1,7-naphthyridin-8 amine]", "values": [{"measurement": "Ki", "setting": "[1]", "value": 0.0071, "unit": "µM"}, {"measurement": "Ki", "setting": "[2]", "value": 0.0036, "unit": "µM"}, {"measurement": "IC50", "setting": "BACE-1", "value": 132, "unit": "nM"}, {"measurement": "Ki", "setting": "[3]", "value": 1120, "unit": "nM"}, {"measurement": "In Vitro Phospholipidosis Assay: Mean NBD-PE Inclusion Count (Fold over control)", "setting": "HepG2 cells", "value": 1.9, "unit": "Fold over control"}]}
